Experimental data published in BindingDB's records for patent US20240335431 (Acerta Pharma, 2024).

molecular target: T1, Menin (Homo sapiens, UniProt O00255); assay: Fluorescence Polarization (FP) Assay
T1 sequence (O00255 whole entry): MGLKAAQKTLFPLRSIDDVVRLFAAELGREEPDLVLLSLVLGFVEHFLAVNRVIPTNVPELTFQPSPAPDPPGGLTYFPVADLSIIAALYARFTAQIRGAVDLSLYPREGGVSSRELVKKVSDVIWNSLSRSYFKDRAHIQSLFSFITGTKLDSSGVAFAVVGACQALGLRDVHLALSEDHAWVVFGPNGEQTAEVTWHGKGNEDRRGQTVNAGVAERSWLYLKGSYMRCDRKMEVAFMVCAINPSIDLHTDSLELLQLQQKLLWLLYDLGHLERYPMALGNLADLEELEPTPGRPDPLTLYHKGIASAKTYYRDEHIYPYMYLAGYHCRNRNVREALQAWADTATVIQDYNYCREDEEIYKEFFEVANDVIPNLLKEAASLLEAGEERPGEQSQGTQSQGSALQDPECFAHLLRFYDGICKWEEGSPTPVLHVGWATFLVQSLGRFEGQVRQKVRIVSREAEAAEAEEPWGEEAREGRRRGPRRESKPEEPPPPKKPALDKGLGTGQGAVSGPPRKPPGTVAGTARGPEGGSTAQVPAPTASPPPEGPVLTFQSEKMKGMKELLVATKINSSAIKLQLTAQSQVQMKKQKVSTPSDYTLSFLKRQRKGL
Method: Compounds were tested in a biochemical binding assay using Menin protein at 2 nM (N6his-tev-Menin_4i80, PB-20-1459) and the substrate cRho110-Ahx-MBM1/MBM2 peptide (UbiQ, UbiQ-Q20201030; cRh110-Ahx-[…]-QRVPALLLPPG-NH2) at 1 nM.384 Low volume black plates (Corning #4514) were used. 5 μL/well compound or 3% DMSO was added at 10-fold serial dilutions in DMSO from 10 μM. 5 μL/well cRho110-Ahx-MBM1/MBM2 peptide or binding buffer (50 mM Tris pH 7.5, 50 mM NaCl, 1 mM TCEP, 0.01% BGG, 0.01% Brij-35) was added to all wells. 5 μL/well Menin protein or binding buffer (50 mM Tris pH 7.5, 50 mM NaCl, 1 mM TCEP, 0.01% BGG, 0.01% Brij-35) was added to all wells. Plates were read on an EnVision plate reader (Perkin Elmer) with excitation at 480 nm and emission at 535 nm P+S, and measured every 5 minutes for 180 minutes.

Row | Compound | IC50
1 | CCN(C(=O)c1cc(F)ccc1-n1c(C)c(C(=O)C2CCN(C(=O)[C@H]3NC[C@@H]4C[C@@H]43)CC2)c2ccncc21)C(C)C (single isomer, unassigned) [US20240335431, Example 48-1] | 1970 nM
2 | C[C@@H]1COC[C@H](C)N1C(=O)c1cc(F)ccc1-n1cc(C(=O)C2CCN(C(=O)[C@H]3N[C@@H]4CC[C@H]3C4)CC2)c2ccncc21 [US20240335431, Example 35] | 97 nM
3 | Cc1c(C(=O)C2CCN(C(=O)[C@@H]3CC[C@H](C)N3)CC2)c2ccncc2n1-c1ccc(F)cc1C(=O)N(C(C)C)C(C)C [US20240335431, Example 60] | 105 nM
4 | Cc1c(C(=O)[C@@H]2CCN(C(=O)[C@@H]3CC[C@H](C)N3)[C@@H](C)C2)c2ccncc2n1-c1ccc(F)cc1C(=O)N(C(C)C)C(C)C [US20240335431, Example 62] | 76 nM
5 | CCN(C(=O)c1cc(F)ccc1-n1c(C)c(C(=O)[C@@H]2CCN(C(=O)[C@@H]3CC[C@H](C)N3)[C@@H](C)C2)c2ccncc21)C(C)C [US20240335431, Example 63] | 59 nM
6 | Cc1c(C(=O)[C@@H]2CCN(C(=O)[C@@H]3CC[C@@H](C)N3)[C@@H](C)C2)c2ccncc2n1-c1ccc(F)cc1C(=O)N(C(C)C)C(C)C [US20240335431, Example 64] | 84 nM
7 | CCN(C(=O)c1cc(F)ccc1-n1c(C)c(C(=O)[C@@H]2CCN(C(=O)[C@@H]3CC[C@@H](C)N3)[C@@H](C)C2)c2ccncc21)C(C)C [US20240335431, Example 65] | 79 nM

More lines, now with the values ahead:

Row | IC50 | Compound
8 | 24 nM | CC(C)n1nccc1-c1cc(F)ccc1-n1cc(C(=O)C2CCN(C(=O)[C@H]3N[C@@H]4CC[C@H]3C4)CC2)c2ccncc21 [US20240335431, Example 36]
9 | 9 nM | CC(C)c1ncncc1-c1cc(F)ccc1-n1cc(C(=O)C2CCN(C(=O)[C@H]3N[C@@H]4CC[C@H]3C4)CC2)c2ccncc21 [US20240335431, Example 37]
10 | 13 nM | CC(C)c1ncccc1-c1cc(F)ccc1-n1cc(C(=O)C2CCN(C(=O)[C@H]3N[C@@H]4CC[C@H]3C4)CC2)c2ccncc21 [US20240335431, Example 38]
11 | 7 nM | CC(C)c1ccccc1-c1cc(F)ccc1-n1cc(C(=O)C2CCN(C(=O)[C@H]3N[C@@H]4CC[C@H]3C4)CC2)c2ccncc21 [US20240335431, Example 39]
12 | 18 nM | O=C(c1cn(-c2ccc(F)cc2-c2cncnc2C2CC2)c2cnccc12)C1CCN(C(=O)[C@H]2N[C@@H]3CC[C@H]2C3)CC1 [US20240335431, Example 40]
13 | 10 nM | CC(C)c1ccncc1-c1cc(F)ccc1-n1cc(C(=O)C2CCN(C(=O)[C@H]3N[C@@H]4CC[C@H]3C4)CC2)c2ccncc21 [US20240335431, Example 41]
14 | 9 nM | CC(C)c1ncsc1-c1cc(F)ccc1-n1cc(C(=O)C2CCN(C(=O)[C@H]3N[C@@H]4CC[C@H]3C4)CC2)c2ccncc21 [US20240335431, Example 42]
15 | 58 nM | CC(C)N(C(=O)c1cc(F)ccc1-n1cc(C(=O)C2CCN(C(=O)[C@H]3N[C@@H]4CC[C@H]3C4)CC2)c2c(F)cncc21)C(C)C [US20240335431, Example 44]
16 | 34 nM | CCN(C(=O)c1cc(F)ccc1-n1c(C)c(C(=O)C2CCN(C(=O)[C@H]3N[C@@H]4CC[C@H]3C4)CC2)c2ccncc21)C(C)C [US20240335431, Example 46]
17 | 15 nM | CCN(C(=O)c1cc(F)ccc1-n1c(C)c(C(=O)C2CCN(C(=O)[C@H]3NC[C@@H]4C[C@@H]43)CC2)c2ccncc21)C(C)C [US20240335431, Example 47]
18 | 15 nM | Cc1c(C(=O)C2CCN(C(=O)[C@H]3NC[C@@H]4C[C@@H]43)CC2)c2ccncc2n1-c1ccc(F)cc1-c1cnccc1C(C)C [US20240335431, Example 54]

molecular target: T2, Muscarinic acetylcholine receptor M2 (Homo sapiens, UniProt P08172); assay: Muscarinic M2 Receptor Binding Assay
T2 sequence (P08172 whole entry): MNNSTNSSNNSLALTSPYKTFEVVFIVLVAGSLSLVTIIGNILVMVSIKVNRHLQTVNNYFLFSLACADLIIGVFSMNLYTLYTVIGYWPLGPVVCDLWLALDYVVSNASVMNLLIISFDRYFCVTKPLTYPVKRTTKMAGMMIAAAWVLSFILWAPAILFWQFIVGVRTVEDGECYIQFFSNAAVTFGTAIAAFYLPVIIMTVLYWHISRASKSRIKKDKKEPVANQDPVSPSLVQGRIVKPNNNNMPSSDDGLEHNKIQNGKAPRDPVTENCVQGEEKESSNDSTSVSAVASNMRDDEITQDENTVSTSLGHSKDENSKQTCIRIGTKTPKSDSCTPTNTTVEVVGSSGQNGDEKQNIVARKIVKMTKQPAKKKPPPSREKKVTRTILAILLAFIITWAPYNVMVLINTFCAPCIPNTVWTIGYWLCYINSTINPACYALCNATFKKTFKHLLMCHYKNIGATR
Method: Cell membrane homogenates (60 μg protein) were incubated for 60 minutes at 22° C. with 2 nM [3H]AF-DX 384 in the absence or presence of the test compound in a buffer containing 50 mM Tris-HCl (pH 7.4), 120 mM NaCl, 5 mM KCl, 5 mM MgCl2, and 1 mM EDTA. Nonspecific binding was determined in the presence of 1 μM atropine. Following incubation, the samples were filtered rapidly under vacuum through glass fiber filters (GF/B, Packard) presoaked with 0.3% PEI and rinsed several times with ice-cold 50 mM Tris-HCl using a 96-sample cell harvester (Unifilter, Packard). The filters were dried then counted for radioactivity in a scintillation counter (Topcount, Packard) using a scintillation cocktail (Microscint 0, Packard). The results were expressed as a percent inhibition of the control radioligand specific binding, from which the Ki was calculated. Data were analyzed using software developed at Cerep (Hill software) and validated by comparison with data generated by the commercial software SigmaPlot 4.0 for Windows ( 1997 by SPSS Inc.).

Row | Ki | Compound
19 | 6700 nM | CCN(C(=O)c1cc(F)ccc1-n1c(C)c(C(=O)C2CCN(C(=O)[C@H]3NC[C@@H]4C[C@@H]43)CC2)c2ccncc21)C(C)C (single isomer, unassigned) [US20240335431, Example 48-1]
